# Test results as given in patent publication US20240024479A1, “NK CELLS OR T CELLS EXPRESSING CHIMERIC HEMATOPOIETIC GROWTH FACTOR RECEPTORS AND METHODS OF USE” (The United States of America, as represented by the …, priority 2020, published 2024).
# Legend:
# 721.221 = assay: Flow cytometry based killing assay, c-MPL+ NK-92 effectors vs 721.221; type: cell-based, human; conditions: c-MPL+ NK-92 with TPO administration
# Method: (§1) The target cells were labeled with 1 μM cell trace violet in some experiments (Thermo Fisher Scientific). The effector and target cells were incubated together in duplicate wells at specific E:T ratio in complete medium without cytokines for 4 hours (total cell number: 200,000 to 250,000 per well in 96-well plate). 7-AAD and Sphero AccuCount Fluorescent particles (Spherotech, IL) were added before analysis by flow cytometry. The absolute number of viable 7-AAD negative target cells was calculated according to bead numbers added (Cooper et al., Leukemia 32:1970-1983, 2018). The percentage of dead cells was calculated relative to target cell only control wells.
# K562 = assay: Flow cytometry based killing assay, c-MPL+ NK-92 effectors vs K562; type: cell-based, human; conditions: c-MPL+ NK-92 with TPO administration
# Method: as §1
# Raji tumor cells = assay: Flow cytometry based killing assay, c-MPL+ NK-92 effectors vs Raji; type: cell-based, human; conditions: c-MPL+ NK-92 exposed to TPO+LD IL-2, 4 hours
# Method: as §1
# c-MPL+ NK-92 cells [1] = assay: Flow cytometry of cell signaling and anti-apoptotic proteins, c-MPL+ NK-92; type: cell-based, human
# Method: Staining was performed in phosphate-buffered saline (PBS) with 2% FBS and 2 mM EDTA and analyzed on a BD LSRFortessa machine. If intracellular staining was required, BD cytofix/cytoperm (BD Biosciences) was applied for cell fixation and permeabilization after surface staining. The apoptosis assay was performed using PE annexinV apoptosis detection kit (BD Biosciences). The data were analyzed on FlowJo software.
# Expression of target proteins was evaluated afterward by flow cytometry as described above.
# GFP+ MPL+ population = assay: Parallel in vitro cultures of the mixed transduced NK cells; type: cell-based, human; conditions: only TPO
# GFP+ MPL+ cells = assay: Persistence of transduced human NK cells in immunodeficient mice; type: in vivo, NSG mice; conditions: for average percentage of GFP+ MPL+ cells amongst the recovered human cells: TPO 50 μg/kg daily, 4 days, about 10% of injected cells
# Excerpt: Both populations were then mixed at a 1:1 ratio immediately before injection intravenously into NSG mice (such that GFP^+ MPL^+ cells and GFP^+ CD34^+ cells each constituted ˜10% of the mixed cells). Each mouse received 2.2×10^7 total human NK cells. […] MPL-transduced NK cells were identified as GFP^+ MPL^+ while CD34-transduced NK cells were gated as GFP^+ CD34^+. The frequency of transduced cells is presented (FIG. 14A) as a percentage of MHC-I^+ human cells isolated from organs or (FIG. 14B) as percent of total live mononuclear cells recovered from each organ. The legend applies to both FIGS. 14A and 14B. Data from 9 mice per group are shown with NK cells derived from 3 human blood donors. Data was normalized to account for unequal transduction or subset mixing before injection using the equation: […]
# Persistence of transduced human NK cells in immunodeficient mice: NK cells from human PBMC were transduced with matched lentiviral vectors encoding GFP/MPL or GFP/CD34 then mixed at a 1:1 ratio and injected intravenously into NSG mice (2.2×10^7 total cells/mouse). […] After euthanasia, blood was drawn by cardiac puncture, bone marrow was harvested by flushing the tibia, and spleen, liver, and lung fragments were processed by grinding over 70 μm nylon mesh. Blood, bone marrow, lung, and spleen samples received 1-2 rounds of 5 minute incubations with ACK lysis buffer (Quality biological). Liver samples were purified by centrifugation over 35% Percoll (Sigma) solution in RPMI. The presence of transduced human cells was quantified in various organs via flow cytometry using antibodies to human MHC class I (W6/32) (BioLegend), c-MPL (1.6.1), CD34 (581) (BD BioSciences), GFP-fluorescence, and Live/Dead Aqua viability dye (Thermo Fisher).
# GFP+ MPL+ NK cells = assay: Degranulation assay and cytokine production, c-MPL-transduced primary NK cells with K562; type: cell-based, human
# Method: To examine degranulation, cells were washed after two hours and stained with anti-CD107a (H4A3) (BioLegend). To assay cytokine production, GolgiPlug and GolgiStop (BD Biosciences) were added at manufacturer's recommended concentrations within the first hour of co-culture with K562. After 4 hours, cells were washed and stained for cell surface markers, then stained intracellularly with mAb recognizing TNF-α (Mab 11) and IFN-γ (B27) (BD Biosciences).
# c-MPL transduced T cells = assay: Competitive expansion of c-MPL-transduced primary T cells; type: cell-based, human
# Method: In vitro cell expansion cultures: The NK-92 (5×10^4 cell/ml) and KHYG-1 (1×10^4 cell/ml) cells were cultured in 1 ml of complete medium in 24-well plate. […] Trypan blue negative cells were counted every other day. […] For competitive primary NK and T cell expansion assay, all transduced cells (5×10^5/ml for NK and 4×10^5/ml for T cell) containing a mixture of GFP positive (transduced) and GFP negative (untransduced) cells were plated on day 0. Fresh medium with appropriate supplements was replaced every other day for NK cells and only on day 3 for T cell experiment. Viable cells were counted and percentage of GFP^+ cells was acquired on indicated days (NK: day 4 and 6, T: day 3 and 6). The fold change of GFP^+ cells was calculated by multiplying the counted cell number times the fraction GFP^+.
# c-MPL+ NK-92 cells [2] = assay: In vitro cell expansion of c-MPL+ NK-92 cells; type: cell-based, human; conditions: day 8
# Excerpt: Lentiviral production and transduction: Lentivirus gene expression vectors encoding EGFP-P2A linker-human EPOR or EGFP-P2A-human c-MPL were cloned according to our design by VectorBuilder (TX, USA). Plasmid DNA for the above and pCMV-dR8.2 dvpr and pCMV-VSV-G packaging plasmids was purified using ZymoPUREII-EndoZero plasmid maxiprep kit (Zymo Research, CA). Lentiviral particles were generated with HEK293T cells and Lipofectamine3000 reagent (Thermo Fisher Scientific, MA) following the manufacturers' instructions. Viral supernatant was harvested at 24 and 48 hours, pooled, and concentrated with lenti-X concentrator (Takara Bio, Japan) or by centrifugation at 18,600 rpm for 2 hours at 4° C. […] After 5 days post-transduction, cells were stained and sorted with fluorescence-activated cell sorting (FACS) using a BD FACSAria II to purify GFP^+EPOR^+ and GFP^+c-MPL^+ NK cell populations.
# In vitro cell expansion cultures: The NK-92 (5×10^4 cell/ml) and KHYG-1 (1×10^4 cell/ml) cells were cultured in 1 ml of complete medium in 24-well plate. […] Trypan blue negative cells were counted every other day. […] Viable cells were counted and percentage of GFP^+ cells was acquired on indicated days (NK: day 4 and 6, T: day 3 and 6). The fold change of GFP^+ cells was calculated by multiplying the counted cell number times the fraction GFP^+.
substance,measurement,setting,value
"TPO: recombinant human thrombopoietin, ligand of the c-MPL receptor; 50 ng/ml rhTPO (R&D)",killing of 721.221 tumor targets,721.221,no significant killing augmentation
same,killing of K562 tumor targets,K562,no significant killing augmentation
same,mean percentage of dead Raji cells,Raji tumor cells; E:T 1:1,84%
same,mean percentage of dead Raji cells,Raji tumor cells; E:T 10:1,85%
same,pS6 expression,c-MPL+ NK-92 cells [1]; TPO added to LD IL-2,11.84
same,"STAT5 phosphorylation, additivity",c-MPL+ NK-92 cells [1]; TPO combined with LD IL-2,No additive effects
same,pSTAT5 expression,"c-MPL+ NK-92 cells [1]; TPO vs no IL-2 control, comparable to LD IL-2",appeared to increase pSTAT5 expression
same,Bcl-2 RMFI,"c-MPL+ NK-92 cells [1]; TPO, 24 hours, no IL-2",64.54
same,Bcl-xL RMFI,"c-MPL+ NK-92 cells [1]; TPO, 24 hours, no IL-2",4.52
same,phospho-p44/42 MAPK expression,"c-MPL+ NK-92 cells [1]; cultures supplemented with IL-2 or TPO, 15 minutes",No alteration
same,GFP+ MPL+ population in parallel cultures,GFP+ MPL+ population,31%
same,"GFP+ MPL+ cells as percentage of total live cells from each organ, vs GFP+ CD34+ control cells",GFP+ MPL+ cells; TPO-treated mice,significantly more
same,average percentage of GFP+ MPL+ cells amongst the recovered human cells,GFP+ MPL+ cells; blood and spleen,15%
same,average percentage of GFP+ MPL+ cells amongst the recovered human cells,GFP+ MPL+ cells; liver and lung,20%
same,degranulation in GFP+ MPL+ NK cells (CD107a),"GFP+ MPL+ NK cells; TPO added to 25 U/ml IL-2, 4 days, K562 1:1",83%
same,percent of GFP MPL transduced NK cells that produced IFN-γ or TNF-α,"GFP+ MPL+ NK cells; TPO added to 25 U/ml IL-2 vs 25 U/ml IL-2 alone, co-cultured with K562",considerably augmented
same,GFP fold-expansion of c-MPL transduced T cells,"c-MPL transduced T cells; D6, TPO alone",5.96 fold
same,GFP fold-expansion of c-MPL+ activated T cells,"c-MPL transduced T cells; day 6, TPO plus LD IL-2",11.39 fold
same,fold expansion of c-MPL+ NK-92 cells,c-MPL+ NK-92 cells [2]; TPO alone,7 fold
same,fold expansion of c-MPL+ NK-92 cells,c-MPL+ NK-92 cells [2]; TPO plus 1 U/ml IL-2,23.25 fold
